# Test results as given in paper PMC7651855 (ACS nano, 2019).
# Bridges are numbered along the chain shown (N, C = ends). Where no end group is shown, it is not given here.
# System: C57bl/6 mice
# Format: in vivo, mouse
# Conditions: n=3; for CNS accumulation of NA-HRP (result in words): biotin-peptide:NA-HRP complex, IP, 24 hours post-injection
Sequence,"NA-delivery to the forebrain (result in words) (peptide-neutravidin-HRP, 10 μg per mouse IP, 24 hours)",CNS accumulation of NA-HRP (result in words)
SACPLSKGKLCGGG (disulfide 3-11 (inferred)) [TACL08],increased NA-delivery to the forebrain when compared against controls,–
SACSQKNFTHCGGG (disulfide 3-11 (inferred)) [TACL06],–,trended toward significant CNS accumulation
SACHQSQSRMCGGG (disulfide 3-11 (inferred)) [TACL10],–,trended toward significant CNS accumulation
